Patent publication US8921416B2, “Dronedarone solid dispersion and preparation method thereof” (Jiangsu Hengrui Medicine Co., Ltd., priority 2010, dated 2014)
Structures can show the parent of a compound that is named as a salt.

How the values were obtained:
[1] = 24 h solubility of solid dispersions in PBS pH6.8; assay type: physicochemical; conditions: 37 °C, pH 6.8, aqueous buffer, thermodynamic from solid
Method: The weight ratio of the drug to the carrier was 1:5. Different hydrophilic polymeric carrier materials were selected from the group consisting of polyethylene glycol 6000, poloxamer 188, PVP K30, Klucel® EF, Plasdone® S-630, mannitol and combinations thereof respectively. 12 parts by weight of dichloromathane were added into the drug and carrier mixture, and was dissolved by stirring. Then the solution was transferred to a vacuum oven, maintained at 55° C., dried under reduced pressure for 48 h. Then the dry mass was crushed with a 100 mesh sieve, thereby the solid dispersion of dronedarone was obtained. The solubilities of the solid dispersion in the phosphate buffered saline (PBS) at pH6.8 were measured as follows.
24 h Solubility Determination: aliquots of the prepared solid dispersion were added into a 100 ml conical flask respectively. Then 50 ml PBS pH6.8 were added. The conical flask was sealed and placed in a thermostatic waterbath shaker and shaked at a set temperature of 37° C. for 24 h. After 24 hours, 10 mL of the solution were taken and filtrated. The initial 4 mL of the filtrate were abandoned and the subsequent filtrate were taken and diluted with PBS pH6.8 to a corresponding folds. The UV absorbance at 290 nm was measured with a UV spectrophotometer. Then the drug solubilities were calculated.

[2] = pH=7; cited from earlier work

solubility at 24 h [1] [µg/mL]	SMILES	solubility in an aqueous solution [2]
12	CCCCc1oc2ccc(NS(C)(=O)=O)cc2c1C(=O)c1ccc(OCCCN(CCCC)CCCC)cc1 [Dronedarone hydrochloride]	
	CCCCc1oc2ccc(NS(C)(=O)=O)cc2c1C(=O)c1ccc(OCCCN(CCCC)CCCC)cc1 [dronedarone, N-(2-Butyl-3-(4-(3-(dibutylamino)propoxy)benzoyl)-5-benzofuranyl)methanesulfonamide]	about 10 μg/ml
